Assays:
Test in all cases: Ray2010 Assay 74
D(1A) dopamine receptor = D(1A) dopamine receptor (Homo sapiens, UniProt P21728)
Text: (§1) Table S2 shows raw Ki data for the current study combined with data collected from the literature for the ten additional compounds.

[1] = target: Kappa-type opioid receptor (Homo sapiens, UniProt P41145)
Text: as §1

[2] = target: 5-hydroxytryptamine receptor 1B (Homo sapiens, UniProt P28222)
Text: as §1

[3] = target: T1, Alpha-1A adrenergic receptor (Homo sapiens, UniProt P35348)
T1 sequence (P35348 whole entry): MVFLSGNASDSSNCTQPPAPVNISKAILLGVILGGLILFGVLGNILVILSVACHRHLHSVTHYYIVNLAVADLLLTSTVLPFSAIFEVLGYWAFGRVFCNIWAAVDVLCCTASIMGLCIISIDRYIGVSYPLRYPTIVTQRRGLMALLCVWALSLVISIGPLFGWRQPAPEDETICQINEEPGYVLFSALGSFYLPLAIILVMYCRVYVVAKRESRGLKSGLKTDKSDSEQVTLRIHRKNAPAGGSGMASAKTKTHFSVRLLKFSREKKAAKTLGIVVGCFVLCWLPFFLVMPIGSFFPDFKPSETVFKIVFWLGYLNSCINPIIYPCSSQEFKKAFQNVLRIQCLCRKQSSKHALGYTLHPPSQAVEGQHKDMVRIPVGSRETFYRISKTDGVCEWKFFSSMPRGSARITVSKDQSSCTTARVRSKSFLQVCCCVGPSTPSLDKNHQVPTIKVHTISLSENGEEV
Text: as §1

[4] = target: 5-hydroxytryptamine receptor 5A (Homo sapiens, UniProt P47898)
5-hydroxytryptamine receptor 5A, sequence (P47898 whole entry): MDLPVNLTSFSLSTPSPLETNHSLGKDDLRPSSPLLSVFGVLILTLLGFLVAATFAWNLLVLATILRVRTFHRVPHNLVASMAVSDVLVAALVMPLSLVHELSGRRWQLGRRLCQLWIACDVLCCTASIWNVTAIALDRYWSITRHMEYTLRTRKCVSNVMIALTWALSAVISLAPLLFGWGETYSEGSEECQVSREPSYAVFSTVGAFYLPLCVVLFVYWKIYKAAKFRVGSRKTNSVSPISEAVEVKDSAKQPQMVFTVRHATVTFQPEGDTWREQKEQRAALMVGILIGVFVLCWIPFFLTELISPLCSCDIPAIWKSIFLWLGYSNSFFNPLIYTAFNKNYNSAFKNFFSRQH
Text: as §1

[5] = target: T2, Muscarinic acetylcholine receptor M2 (Homo sapiens, UniProt P08172)
T2 sequence (P08172 whole entry): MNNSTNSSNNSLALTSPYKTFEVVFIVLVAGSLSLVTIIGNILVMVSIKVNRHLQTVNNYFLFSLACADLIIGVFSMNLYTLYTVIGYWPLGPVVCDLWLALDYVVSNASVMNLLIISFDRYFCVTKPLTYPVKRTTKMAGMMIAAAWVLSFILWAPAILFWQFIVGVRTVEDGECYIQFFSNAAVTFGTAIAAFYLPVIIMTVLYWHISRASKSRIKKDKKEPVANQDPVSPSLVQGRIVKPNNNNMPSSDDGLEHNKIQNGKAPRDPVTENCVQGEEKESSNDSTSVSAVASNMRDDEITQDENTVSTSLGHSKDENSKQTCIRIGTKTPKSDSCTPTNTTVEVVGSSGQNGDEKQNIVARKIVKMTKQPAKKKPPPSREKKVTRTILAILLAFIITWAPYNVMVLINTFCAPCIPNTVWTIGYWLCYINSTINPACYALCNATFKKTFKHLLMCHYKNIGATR
Text: as §1

[6] = target: T3, Muscarinic acetylcholine receptor M5 (Homo sapiens, UniProt P08912)
T3 sequence (P08912 whole entry): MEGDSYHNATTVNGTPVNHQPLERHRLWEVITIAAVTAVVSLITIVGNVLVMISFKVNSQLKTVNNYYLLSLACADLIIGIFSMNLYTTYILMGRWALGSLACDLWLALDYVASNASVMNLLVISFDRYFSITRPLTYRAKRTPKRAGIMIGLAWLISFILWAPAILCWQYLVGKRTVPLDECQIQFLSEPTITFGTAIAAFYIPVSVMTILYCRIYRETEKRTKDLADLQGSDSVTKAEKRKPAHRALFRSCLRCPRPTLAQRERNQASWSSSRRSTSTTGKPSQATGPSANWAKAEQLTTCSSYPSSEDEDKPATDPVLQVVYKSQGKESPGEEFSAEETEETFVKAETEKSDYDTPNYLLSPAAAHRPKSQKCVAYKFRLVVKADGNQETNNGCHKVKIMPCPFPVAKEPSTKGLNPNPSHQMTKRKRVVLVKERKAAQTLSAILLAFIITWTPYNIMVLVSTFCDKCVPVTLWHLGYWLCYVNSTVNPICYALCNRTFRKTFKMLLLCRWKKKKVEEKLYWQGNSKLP
Text: as §1

D(1B) dopamine receptor = D(1B) dopamine receptor (Homo sapiens, UniProt P21918)
D(1B) dopamine receptor, sequence (P21918 whole entry): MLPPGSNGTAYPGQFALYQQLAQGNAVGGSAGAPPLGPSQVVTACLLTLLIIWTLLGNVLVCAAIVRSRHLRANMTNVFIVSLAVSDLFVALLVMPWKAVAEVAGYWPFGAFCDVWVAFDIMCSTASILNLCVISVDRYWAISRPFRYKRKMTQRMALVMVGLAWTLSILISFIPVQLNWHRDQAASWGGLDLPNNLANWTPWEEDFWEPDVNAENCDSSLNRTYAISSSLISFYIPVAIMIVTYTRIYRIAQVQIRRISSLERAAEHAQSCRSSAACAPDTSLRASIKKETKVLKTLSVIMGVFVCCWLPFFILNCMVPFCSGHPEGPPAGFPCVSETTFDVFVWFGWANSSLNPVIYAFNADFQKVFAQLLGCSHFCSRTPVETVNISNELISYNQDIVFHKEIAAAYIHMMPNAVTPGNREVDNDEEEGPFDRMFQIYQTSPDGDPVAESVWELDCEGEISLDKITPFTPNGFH
Text: as §1

Histamine H2 receptor = Histamine H2 receptor (Homo sapiens, UniProt P25021)
Histamine H2 receptor, sequence (P25021 whole entry): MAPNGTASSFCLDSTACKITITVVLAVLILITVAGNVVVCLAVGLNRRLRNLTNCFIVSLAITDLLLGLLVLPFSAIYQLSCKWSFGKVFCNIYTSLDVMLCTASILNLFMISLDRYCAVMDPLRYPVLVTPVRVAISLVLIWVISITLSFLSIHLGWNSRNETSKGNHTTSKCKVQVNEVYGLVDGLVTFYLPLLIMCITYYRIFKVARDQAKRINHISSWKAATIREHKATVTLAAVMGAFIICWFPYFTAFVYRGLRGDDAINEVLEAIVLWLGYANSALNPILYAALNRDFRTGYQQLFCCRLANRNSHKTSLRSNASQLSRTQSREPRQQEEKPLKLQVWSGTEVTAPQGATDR
Text: as §1

D(2) dopamine receptor = D(2) dopamine receptor (Homo sapiens, UniProt P14416)
D(2) dopamine receptor, sequence (P14416 whole entry): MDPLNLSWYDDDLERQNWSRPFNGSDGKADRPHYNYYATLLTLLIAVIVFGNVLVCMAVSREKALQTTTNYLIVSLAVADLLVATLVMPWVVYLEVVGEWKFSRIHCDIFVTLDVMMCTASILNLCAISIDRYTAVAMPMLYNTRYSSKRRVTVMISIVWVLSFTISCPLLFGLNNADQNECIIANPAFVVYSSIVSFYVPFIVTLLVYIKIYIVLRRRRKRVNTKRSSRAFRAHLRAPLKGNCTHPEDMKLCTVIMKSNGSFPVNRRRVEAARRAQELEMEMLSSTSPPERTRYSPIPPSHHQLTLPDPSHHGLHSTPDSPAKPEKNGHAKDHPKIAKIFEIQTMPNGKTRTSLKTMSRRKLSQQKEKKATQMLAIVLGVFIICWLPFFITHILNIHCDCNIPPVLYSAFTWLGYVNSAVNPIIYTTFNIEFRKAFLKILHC
Text: as §1

[7] = target: T4, Alpha-1B adrenergic receptor (Homo sapiens, UniProt P35368)
T4 sequence (P35368 whole entry): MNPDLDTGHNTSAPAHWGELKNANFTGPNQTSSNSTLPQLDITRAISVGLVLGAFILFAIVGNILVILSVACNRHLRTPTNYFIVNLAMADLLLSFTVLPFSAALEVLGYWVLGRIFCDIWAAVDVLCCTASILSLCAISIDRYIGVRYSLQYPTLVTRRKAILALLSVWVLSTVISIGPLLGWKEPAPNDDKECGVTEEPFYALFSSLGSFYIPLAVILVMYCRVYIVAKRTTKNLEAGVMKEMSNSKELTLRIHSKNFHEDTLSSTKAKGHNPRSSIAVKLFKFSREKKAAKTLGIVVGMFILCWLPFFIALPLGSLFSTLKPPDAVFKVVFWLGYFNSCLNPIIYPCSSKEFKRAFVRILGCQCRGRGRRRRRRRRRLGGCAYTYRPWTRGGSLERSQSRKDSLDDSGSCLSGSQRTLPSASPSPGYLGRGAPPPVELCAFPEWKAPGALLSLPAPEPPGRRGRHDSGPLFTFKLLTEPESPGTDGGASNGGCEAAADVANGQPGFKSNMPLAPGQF
Text: as §1

[8] = target: Sodium-dependent dopamine transporter (Homo sapiens, UniProt Q01959)
Sodium-dependent dopamine transporter, sequence (Q01959 whole entry): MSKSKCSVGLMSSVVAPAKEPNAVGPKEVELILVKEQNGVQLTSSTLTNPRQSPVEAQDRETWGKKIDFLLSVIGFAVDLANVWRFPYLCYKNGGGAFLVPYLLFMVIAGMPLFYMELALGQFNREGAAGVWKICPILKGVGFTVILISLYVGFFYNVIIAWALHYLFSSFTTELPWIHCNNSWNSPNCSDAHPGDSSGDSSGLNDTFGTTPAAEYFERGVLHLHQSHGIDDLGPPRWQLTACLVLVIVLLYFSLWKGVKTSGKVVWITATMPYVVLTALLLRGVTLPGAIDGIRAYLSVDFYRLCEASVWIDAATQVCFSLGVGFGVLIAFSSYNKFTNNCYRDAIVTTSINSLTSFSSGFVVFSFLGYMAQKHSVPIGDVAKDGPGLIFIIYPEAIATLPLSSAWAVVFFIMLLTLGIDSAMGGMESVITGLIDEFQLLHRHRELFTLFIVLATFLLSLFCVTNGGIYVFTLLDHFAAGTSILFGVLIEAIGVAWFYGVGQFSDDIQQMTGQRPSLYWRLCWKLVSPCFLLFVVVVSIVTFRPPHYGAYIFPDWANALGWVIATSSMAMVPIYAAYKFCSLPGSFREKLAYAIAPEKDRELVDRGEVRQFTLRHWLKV
Text: as §1

[9] = target: Sodium-dependent noradrenaline transporter (Homo sapiens, UniProt P23975)
Sodium-dependent noradrenaline transporter, sequence (P23975 whole entry): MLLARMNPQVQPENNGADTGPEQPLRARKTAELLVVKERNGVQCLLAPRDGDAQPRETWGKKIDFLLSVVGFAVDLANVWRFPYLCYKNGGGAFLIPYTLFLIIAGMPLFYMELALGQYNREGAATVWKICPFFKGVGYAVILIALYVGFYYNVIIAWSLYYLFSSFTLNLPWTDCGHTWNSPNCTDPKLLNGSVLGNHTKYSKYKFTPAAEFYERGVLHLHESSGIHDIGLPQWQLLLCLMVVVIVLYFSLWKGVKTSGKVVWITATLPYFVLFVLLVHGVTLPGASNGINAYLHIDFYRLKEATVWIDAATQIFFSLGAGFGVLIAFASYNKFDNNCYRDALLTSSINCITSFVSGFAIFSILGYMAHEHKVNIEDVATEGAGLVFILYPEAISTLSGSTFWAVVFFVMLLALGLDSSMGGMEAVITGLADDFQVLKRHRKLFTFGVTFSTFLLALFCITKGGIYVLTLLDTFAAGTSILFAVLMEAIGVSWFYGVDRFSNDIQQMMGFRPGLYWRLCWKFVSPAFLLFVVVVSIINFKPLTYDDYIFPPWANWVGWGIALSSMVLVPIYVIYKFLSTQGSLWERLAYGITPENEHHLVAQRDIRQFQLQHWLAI
Text: as §1

Histamine H1 receptor = Histamine H1 receptor (Homo sapiens, UniProt P35367)
Histamine H1 receptor, sequence (P35367 whole entry): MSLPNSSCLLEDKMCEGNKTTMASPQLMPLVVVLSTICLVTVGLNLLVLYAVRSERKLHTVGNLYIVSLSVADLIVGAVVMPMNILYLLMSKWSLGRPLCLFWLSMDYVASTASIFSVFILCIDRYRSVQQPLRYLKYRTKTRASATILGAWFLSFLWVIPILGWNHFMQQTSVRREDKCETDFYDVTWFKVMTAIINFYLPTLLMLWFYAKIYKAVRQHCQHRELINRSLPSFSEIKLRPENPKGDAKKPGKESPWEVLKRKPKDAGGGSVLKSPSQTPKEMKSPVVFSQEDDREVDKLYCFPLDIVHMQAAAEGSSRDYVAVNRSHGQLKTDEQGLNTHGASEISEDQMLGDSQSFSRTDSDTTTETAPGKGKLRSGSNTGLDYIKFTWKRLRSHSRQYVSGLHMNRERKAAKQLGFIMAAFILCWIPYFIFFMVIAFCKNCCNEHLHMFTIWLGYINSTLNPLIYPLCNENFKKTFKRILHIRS
Text: as §1

Kappa-type opioid receptor, sequence (P41145 whole entry): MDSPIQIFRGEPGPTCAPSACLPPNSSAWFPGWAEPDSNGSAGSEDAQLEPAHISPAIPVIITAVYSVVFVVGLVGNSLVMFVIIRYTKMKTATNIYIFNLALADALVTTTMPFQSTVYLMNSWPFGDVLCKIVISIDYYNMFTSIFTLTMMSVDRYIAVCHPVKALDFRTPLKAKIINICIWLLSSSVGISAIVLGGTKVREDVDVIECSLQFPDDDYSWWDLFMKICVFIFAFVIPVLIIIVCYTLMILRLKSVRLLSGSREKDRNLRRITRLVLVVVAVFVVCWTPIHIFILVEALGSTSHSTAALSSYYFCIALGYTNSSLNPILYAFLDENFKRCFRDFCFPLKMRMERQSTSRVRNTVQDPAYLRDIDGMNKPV
5-hydroxytryptamine receptor 1B, sequence (P28222 whole entry): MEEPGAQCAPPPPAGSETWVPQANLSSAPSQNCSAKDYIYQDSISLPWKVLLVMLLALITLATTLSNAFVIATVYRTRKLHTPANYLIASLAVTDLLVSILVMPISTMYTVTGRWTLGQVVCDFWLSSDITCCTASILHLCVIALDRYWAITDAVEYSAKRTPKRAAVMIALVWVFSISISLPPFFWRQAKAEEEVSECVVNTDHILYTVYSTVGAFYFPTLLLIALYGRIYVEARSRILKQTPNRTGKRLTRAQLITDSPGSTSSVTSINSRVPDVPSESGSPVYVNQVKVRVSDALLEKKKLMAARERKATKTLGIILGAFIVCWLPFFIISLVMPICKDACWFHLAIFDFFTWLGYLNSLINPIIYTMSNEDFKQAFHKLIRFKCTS
D(1A) dopamine receptor, sequence (P21728 whole entry): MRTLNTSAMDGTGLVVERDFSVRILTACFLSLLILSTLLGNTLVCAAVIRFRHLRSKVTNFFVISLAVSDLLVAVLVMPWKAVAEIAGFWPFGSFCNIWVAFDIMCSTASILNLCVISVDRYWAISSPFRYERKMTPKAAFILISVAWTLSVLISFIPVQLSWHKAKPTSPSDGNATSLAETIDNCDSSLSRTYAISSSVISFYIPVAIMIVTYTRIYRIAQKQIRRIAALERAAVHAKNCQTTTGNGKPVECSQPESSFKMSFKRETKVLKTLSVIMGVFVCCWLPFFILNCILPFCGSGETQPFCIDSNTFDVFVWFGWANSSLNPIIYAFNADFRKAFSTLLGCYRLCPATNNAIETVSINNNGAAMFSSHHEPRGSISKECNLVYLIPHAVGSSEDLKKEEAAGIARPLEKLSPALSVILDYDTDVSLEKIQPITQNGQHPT

| Structure (SMILES) | Ki (D(1A) dopamine receptor) [µM] | Ki [1] [µM] | Ki [2] [µM] | Ki [3] [µM] | Ki [4] [µM] | Ki [5] [µM] | Ki [6] [µM] | Ki (D(1B) dopamine receptor) [µM] | Ki (Histamine H2 receptor) [µM] | Ki (D(2) dopamine receptor) [µM] | Ki [7] [µM] | Ki [8] [µM] | Ki [9] [µM] | Ki (Histamine H1 receptor) [µM] |
| --- | --- | --- | --- | --- | --- | --- | --- | --- | --- | --- | --- | --- | --- | --- |
| CC(N)Cc1ccc2c(c1)OCO2 (configuration not stated) | > 10 | > 10 | > 10 | > 10 | > 10 | > 10 | > 10 | > 10 | > 10 | > 10 | > 10 | > 10 | > 10 | – |
| CCOc1cc(OC)c(CC(C)N)cc1OC (configuration not stated) | > 10 | > 10 | > 10 | > 10 | > 10 | > 10 | > 10 | > 10 | > 10 | > 10 | > 10 | > 10 | > 10 | > 10 |
| COc1cc(CC(C)N)cc(OC)c1OC (configuration not stated) | > 10 | > 10 | 2.86 | > 10 | > 10 | > 10 | > 10 | > 10 | > 10 | > 10 | > 10 | > 10 | > 10 | > 10 |
| COc1cc(CCN)c(OC)cc1Br | > 10 | > 10 | 0.104 | > 10 | > 10 | > 10 | > 10 | > 10 | > 10 | 3.37 | > 10 | > 10 | > 10 | > 10 |
| CC[C@H]1C[C@@H]2C[C@H]3c4[nH]c5ccc(OC)cc5c4CCN(C2)[C@@H]13 | > 10 | – | > 10 | – | – | 39.4 | – | – | – | > 10 | – | 1.98 | – | > 10 |
| CCc1cc(OC)c(CC(C)N)cc1OC (configuration not stated) | > 10 | > 10 | 2.8 | > 10 | > 10 | > 10 | > 10 | > 10 | > 10 | > 10 | > 10 | > 10 | > 10 | > 10 |
| CN(C)CCc1c[nH]c2ccccc12 [2-(1H-indol-3-yl)-N,N-dimethylethanamine] | – | > 10 | > 10 | 1.75 | 0.611 | > 10 | > 10 | > 10 | > 10 | > 10 | 0.974 | > 10 | > 10 | – |
| CCc1[nH]c2ccc(OC)cc2c1CCN(C)C [2-ethyl-5-methoxy-N,N-dimethyltryptamine] | – | > 10 | > 10 | – | – | > 10 | > 10 | – | – | > 10 | – | > 10 | – | > 10 |
| COC(=O)[C@@H]1C[C@H](OC(C)=O)C(=O)[C@H]2[C@@]1(C)CC[C@H]1C(=O)O[C@H](c3ccoc3)C[C@]21C [2S,4aR,6a(R,7R,9S,10aS,10bR)-9-(acetyloxy)-2-(furan-3-yl)dodecahydro-6a,10b-dimethyl-4,10-dioxo-2H-naphtho[2,1-c]pyran-7-carboxylic acid methyl ester] | > 10 | – | > 10 | > 10 | > 10 | > 10 | > 10 | > 10 | – | > 10 | > 10 | > 10 | – | > 10 |
| COc1ccc2[nH]cc(CCN(C)C)c2c1 [3-(2-DIMETHYLAMINOETHYL)-5-METHOXYINDOLE] | 0.0795 | > 10 | – | > 10 | – | > 10 | > 10 | > 10 | > 10 | 3.56 | > 10 | > 10 | 2.86 | – |
| CN(C)CCc1c[nH]c2cccc(O)c12 [4-hydroxy-N,N-dimethyltryptamine] | – | > 10 | – | > 10 | – | > 10 | – | > 10 | > 10 | > 10 | > 10 | > 10 | > 10 | > 10 |
| COc1ccc2[nH]cc(CCN(C(C)C)C(C)C)c2c1 [5-meo-dipt] | > 10 | > 10 | – | > 10 | > 10 | > 10 | > 10 | > 10 | > 10 | > 10 | > 10 | > 10 | > 10 | > 10 |
| COc1cc(OC)c(OC)cc1CC(C)N (stereo not drawn) [(+/-)1-Methyl-2-(2,4,5-trimethoxy-phenyl)-ethylamine] | > 10 | – | > 10 | > 10 | > 10 | > 10 | > 10 | > 10 | > 10 | > 10 | > 10 | > 10 | > 10 | 1.41 |
| COc1ccc2[nH]c(C)c(CCN(C)C)c2c1 [[2-(5-Methoxy-2-methyl-1H-indol-3-yl)-ethyl]-dimethyl-amine (C2H2O)] | – | > 10 | > 10 | – | – | > 10 | > 10 | – | – | > 10 | – | > 10 | – | > 10 |
| CCN(CC)C(=O)[C@@H]1C=C2c3cccc4[nH]cc(c34)C[C@H]2N(C)C1 [[N-methyl-3H]LSD] | 0.177 | > 10 | 0.0039 | 1.13 | – | – | – | – | – | 0.11 | 8.68 | > 10 | > 10 | – |
| C[C@@H]1C[C@H](C)N1C(=O)C1C=C2c3cccc4[nH]cc(c34)C[C@H]2N(C)C1 (stereo partly drawn) [cis-2a] | 0.232 | > 10 | 0.0037 | 0.529 | 0.0164 | – | – | – | – | 0.0491 | > 10 | > 10 | > 10 | 0.501 |
| C[C@@H]1C[C@@H](C)N1C(=O)C1C=C2c3cccc4[nH]cc(c34)C[C@H]2N(C)C1 (some centres not stated) [rr-2b] | 0.342 | > 10 | 0.002 | 5.19 | 0.0127 | – | – | – | – | 0.264 | > 10 | > 10 | > 10 | 1.45 |
